Experimental data taken from the supplement of paper PMC10307832.

What was measured:
Assay in all cases: relative viability (nuclei count vs DMSO), 5 days (fraction); higher = more cells survive
BEN = tested on: BEN
Outline: (§1)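 The day after seeding in 1536-well plates, lung cancer cell lines were treated by pin tool with a single drug, or with a fixed anchor-drug dose together with five library-drug doses (not always all listed) in √10 steps. After 5 days, a combined fix-and-stain solution (final 0.05% Triton X-100, 1% formaldehyde, 1 ug/ml Hoechst) was added. Nuclei counted on 4× images gave relative viability as treated counts over vehicle counts, reported as the median of duplicate plates.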

HCC-15 = tested on: HCC-15
Outline: as §1

HCC-78 = tested on: HCC-78
Outline: as §1

LC-2-ad = tested on: LC-2-ad
Outline: as §1

LCLC-97TM1 = tested on: LCLC-97TM1
Outline: as §1

LK-2 = tested on: LK-2
Outline: as §1

LU99A = tested on: LU99A
Outline: as §1

LXF-289 = tested on: LXF-289
Outline: as §1

NCI-H1651 = tested on: NCI-H1651
Outline: as §1

NCI-H1666 = tested on: NCI-H1666
Outline: as §1

NCI-H1944 = tested on: NCI-H1944
Outline: as §1

NCI-H2087 = tested on: NCI-H2087
Outline: as §1

NCI-H322M = tested on: NCI-H322M
Outline: as §1

NCI-H358 = tested on: NCI-H358
Outline: as §1

NCI-H596 = tested on: NCI-H596
Outline: as §1

NCI-H650 = tested on: NCI-H650
Outline: as §1

NCI-H661 = tested on: NCI-H661
Outline: as §1

NCI-H838 = tested on: NCI-H838
Outline: as §1

PC-3 [JPC-3] = tested on: PC-3 [JPC-3]
Outline: as §1

SK-MES-1 = tested on: SK-MES-1
Outline: as §1

UMC-11 = tested on: UMC-11
Outline: as §1

## C=C1C(=O)O[C@@H](CCCCCCCC)[C@@H]1C(=O)O [C-75] + Cc1nc(NC(=O)N2CCC[C@H]2C(N)=O)sc1-c1ccnc(C(C)(C)C(F)(F)F)c1 [Alpelisib] (partner 2 µM)
BEN; first compound 0.08 µM
  relative viability: 0.983
BEN; first compound 0.253 µM
  relative viability: 1.15
BEN; first compound 0.8 µM
  relative viability: 0.953
BEN; first compound 2.53 µM
  relative viability: 0.926
BEN; first compound 8 µM
  relative viability: 0.91
HCC-15; first compound 0.08 µM
  relative viability: 0.891
HCC-15; first compound 0.253 µM
  relative viability: 0.862
HCC-15; first compound 0.8 µM
  relative viability: 0.873
HCC-15; first compound 2.53 µM
  relative viability: 0.641
HCC-15; first compound 8 µM
  relative viability: 0.871
HCC-78; first compound 0.08 µM
  relative viability: 0.297
HCC-78; first compound 0.253 µM
  relative viability: 0.318
HCC-78; first compound 0.8 µM
  relative viability: 0.354
HCC-78; first compound 2.53 µM
  relative viability: 0.336
HCC-78; first compound 8 µM
  relative viability: 0.408
LC-2-ad; first compound 0.08 µM
  relative viability: 0.838
LC-2-ad; first compound 0.253 µM
  relative viability: 0.822
LC-2-ad; first compound 0.8 µM
  relative viability: 0.828
LC-2-ad; first compound 8 µM
  relative viability: 0.891
LCLC-97TM1; first compound 0.08 µM
  relative viability: 0.286
LCLC-97TM1; first compound 0.253 µM
  relative viability: 0.376
LCLC-97TM1; first compound 0.8 µM
  relative viability: 0.225
LCLC-97TM1; first compound 2.53 µM
  relative viability: 0.251
LCLC-97TM1; first compound 8 µM
  relative viability: 0.271
LK-2; first compound 0.08 µM
  relative viability: 0.921
LK-2; first compound 0.253 µM
  relative viability: 0.771
LK-2; first compound 0.8 µM
  relative viability: 1.13
LK-2; first compound 2.53 µM
  relative viability: 1.28
LK-2; first compound 8 µM
  relative viability: 1
LU99A; first compound 0.08 µM
  relative viability: 0.537
LU99A; first compound 0.253 µM
  relative viability: 0.547
LU99A; first compound 0.8 µM
  relative viability: 0.516
LU99A; first compound 2.53 µM
  relative viability: 0.483
LU99A; first compound 8 µM
  relative viability: 0.389
LXF-289; first compound 0.08 µM
  relative viability: 1.01
LXF-289; first compound 0.253 µM
  relative viability: 0.979
LXF-289; first compound 0.8 µM
  relative viability: 0.992
LXF-289; first compound 2.53 µM
  relative viability: 0.973
LXF-289; first compound 8 µM
  relative viability: 1.09
NCI-H1651; first compound 0.08 µM
  relative viability: 0.871
NCI-H1651; first compound 0.253 µM
  relative viability: 0.988
NCI-H1651; first compound 0.8 µM
  relative viability: 1.02
NCI-H1651; first compound 2.53 µM
  relative viability: 0.793
NCI-H1651; first compound 8 µM
  relative viability: 0.882
NCI-H1666; first compound 0.08 µM
  relative viability: 0.908
NCI-H1666; first compound 0.253 µM
  relative viability: 1.13
NCI-H1666; first compound 0.8 µM
  relative viability: 0.879
NCI-H1666; first compound 2.53 µM
  relative viability: 0.987
NCI-H1666; first compound 8 µM
  relative viability: 0.71
NCI-H1944; first compound 0.08 µM
  relative viability: 0.824
NCI-H1944; first compound 0.253 µM
  relative viability: 0.655
NCI-H1944; first compound 0.8 µM
  relative viability: 0.916
NCI-H1944; first compound 8 µM
  relative viability: 0.818
NCI-H2087; first compound 0.08 µM
  relative viability: 1.07
NCI-H2087; first compound 0.253 µM
  relative viability: 0.921
NCI-H2087; first compound 0.8 µM
  relative viability: 1.02
NCI-H2087; first compound 2.53 µM
  relative viability: 0.682
NCI-H2087; first compound 8 µM
  relative viability: 0.934
NCI-H322M; first compound 0.08 µM
  relative viability: 0.776
NCI-H322M; first compound 0.253 µM
  relative viability: 1.05
NCI-H322M; first compound 0.8 µM
  relative viability: 0.821
NCI-H322M; first compound 2.53 µM
  relative viability: 0.771
NCI-H322M; first compound 8 µM
  relative viability: 0.836
NCI-H358; first compound 0.08 µM
  relative viability: 0.851
NCI-H358; first compound 0.253 µM
  relative viability: 0.735
NCI-H358; first compound 0.8 µM
  relative viability: 0.789
NCI-H358; first compound 2.53 µM
  relative viability: 0.859
NCI-H358; first compound 8 µM
  relative viability: 0.808
NCI-H596; first compound 0.08 µM
  relative viability: 0.51
NCI-H596; first compound 0.253 µM
  relative viability: 0.663
NCI-H596; first compound 0.8 µM
  relative viability: 0.476
NCI-H596; first compound 2.53 µM
  relative viability: 0.525
NCI-H596; first compound 8 µM
  relative viability: 0.54
NCI-H650; first compound 0.08 µM
  relative viability: 1.1
NCI-H650; first compound 0.253 µM
  relative viability: 0.874
NCI-H650; first compound 0.8 µM
  relative viability: 1.08
NCI-H650; first compound 2.53 µM
  relative viability: 1.06
NCI-H650; first compound 8 µM
  relative viability: 1.04
NCI-H661; first compound 0.08 µM
  relative viability: 0.545
NCI-H661; first compound 0.253 µM
  relative viability: 0.477
NCI-H661; first compound 0.8 µM
  relative viability: 0.657
NCI-H661; first compound 2.53 µM
  relative viability: 0.409
NCI-H661; first compound 8 µM
  relative viability: 0.718
NCI-H838; first compound 0.08 µM
  relative viability: 0.949
NCI-H838; first compound 0.253 µM
  relative viability: 0.675
NCI-H838; first compound 0.8 µM
  relative viability: 0.928
NCI-H838; first compound 2.53 µM
  relative viability: 0.79
NCI-H838; first compound 8 µM
  relative viability: 0.919
PC-3 [JPC-3]; first compound 0.08 µM
  relative viability: 1.02
PC-3 [JPC-3]; first compound 0.253 µM
  relative viability: 0.981
PC-3 [JPC-3]; first compound 0.8 µM
  relative viability: 1.07
PC-3 [JPC-3]; first compound 2.53 µM
  relative viability: 1.09
PC-3 [JPC-3]; first compound 8 µM
  relative viability: 1.12
SK-MES-1; first compound 0.08 µM
  relative viability: 1.1
SK-MES-1; first compound 0.253 µM
  relative viability: 0.876
SK-MES-1; first compound 0.8 µM
  relative viability: 0.902
SK-MES-1; first compound 2.53 µM
  relative viability: 0.864
SK-MES-1; first compound 8 µM
  relative viability: 0.792
UMC-11; first compound 0.08 µM
  relative viability: 0.927
UMC-11; first compound 0.253 µM
  relative viability: 1.15
UMC-11; first compound 0.8 µM
  relative viability: 0.97
UMC-11; first compound 2.53 µM
  relative viability: 0.909
UMC-11; first compound 8 µM
  relative viability: 0.786
